Experiment [1] deals with T1, Aurora-A122-403-C290A/C393A (Homo sapiens, UniProt O14965, C290A/C393A).
T1 construct: Human Aurora-A kinase domain 122-403 wild-type or C290A/ C393A mutant; His tag (pET30TEV vector) (N, cleaved yes); made in house; host or cells: E. coli RIL, co-expressed with lambda phosphatase (Aurora-A); tracer by solid phase synthesis
T1 sequence (O14965 122-403 C290A/C393A): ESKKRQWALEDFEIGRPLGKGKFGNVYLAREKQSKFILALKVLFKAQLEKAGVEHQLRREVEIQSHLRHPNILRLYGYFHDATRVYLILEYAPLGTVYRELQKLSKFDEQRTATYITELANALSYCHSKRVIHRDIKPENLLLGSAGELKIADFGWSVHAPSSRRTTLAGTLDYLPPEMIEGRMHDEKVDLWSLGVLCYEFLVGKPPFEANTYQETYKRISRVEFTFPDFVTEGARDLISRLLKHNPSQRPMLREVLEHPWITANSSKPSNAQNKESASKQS
The experiment can be described thus: Isothermal titration calorimetry (ITC). Format: binding. The conditions noted are these: single titration. As to the method: Isothermal titration calorimetry (ITC). ITC experiments were carried out using a MicroCal PEAQ-ITC system (Malvern Panalytical) at 25 °C. A stock solution of Aurora-A 122-403-290A/C393A was dialyzed into ITC buffer overnight (25 mM Tris buffer, pH= 7.5; 150 mM NaCl; 5 mM MgCl2; 5 % v/v glycerol), and the same buffer was employed to resuspend a solid portion of the testing peptides. For each experiment, initially, the cell was filled with 275 µl of Aurora-A122-403-290A/C393A (46 μM) and the syringe was loaded with the corresponding peptide at 1.25 mM concentration. An initial injection of 0.5 μL was then followed by 13 injections of 3 μL, every 150 s, with a constant syringe rotation speed of 750 rpm throughout. The signal for the enthalpy of dilution of each peptide into buffer was independently measured in a control titration experiment and then subtracted from the experimental binding traces. The Kd, ΔG°, ΔH° and -TΔS° values were determined via the MicroCal PEAQ-ITC analysis software (Malvern Paranalytical) using a single-site binding model. […]

Experiment [2] concerns the target T1, Aurora-A122-403-C290A/C393A. The experiment can be described thus: Competition FA assay against FAM-Ahx-TACC3 522-536 tracer. In kind it is binding.
The mark [3] stands for this setting: as E1, Table S3 (mal): maleimide-constrained species, WT value is an individual replica control assay, mean ± SD, n = 3, SD, read-out: IC50 (mal).
Setting [4] is: as E1, oxidised (disulfide) species made in situ from 10 mM stock in aqueous DMSO 33% v/v, air, overnight, WT control (+DMSO) given the same DMSO incubation, mean ± SD, n = 3, read-out: IC50 (ox).
Setting [5] is: as E1, free-sulfhydryl (reduced) species, DTT 5 mM in buffer, WT control (+DTT), mean ± SD, n = 3, read-out: IC50 (red).

Where two headings read alike, the source gives them in different places. *1 amine or outer side, *2 acyl side, *3 side chain or, on linkers, in order; H or OH if unused. Where a SMILES comes first, the peptide text is derived from it. Bridges are numbered along the chain shown (N, C = ends). [ ]: non-standard residue; d: D form. Biphenyl(4,4'-CH2)2 = c1cc(-c2ccc(C[*:2])cc2)ccc1C[*:1]; Maleimide(3,4-diyl) = O=C1NC(=O)C([*:2])=C1[*:1]; Pro(trans-4-F) = O=C(O)[C@@H]1C[C@@H](F)CN1; Phe(4-Br) = N[C@@H](Cc1ccc(Br)cc1)C(=O)O

By Kd is commonly meant the free concentration of one partner at which half of the binding sites on the other are occupied at equilibrium, for simple one-to-one binding. Lower therefore signals a tighter complex. As a reminder, the IC50 is the concentration that inhibits the measured activity by half.

As to `CC(=O)N[C@@H](CCC(=O)O)C(=O)N[C@@H](CCC(=O)O)C(=O)N[C@@H](CO)C(=O)N[C@@H](Cc1ccccc1)C(=O)N[C@@H](CCCNC(=N)N)C(=O)N[C@@H](CC(=O)O)C(=O)N1CCC[C@H]1C(=O)N[C@@H](C)C(=O)N[C@@H](CCC(=O)O)C(=O)N[C@H](C(=O)N[C@@H](CC(C)C)C(=O)NCC(=O)N[C@H](C(=O)NCC(=O)N[C@@H](C)C(N)=O)[C@@H](C)O)C(C)C` [TACC3 522-536], the Kd was found to be 57.4 µM in experiment [1] (ITC 25 °C, Aurora-A 46 µM in cell, Ac-capped peptide 1.25 mM, 25 mM Tris, 150 mM NaCl, 5 mM MgCl2, 5% v/v glycerol, pH 7.5, N restrained fit (N = 1)) and 58.6 µM in experiment [1] (ITC as E13, N unrestrained fit).

`CC(=O)N[C@@H](CCC(=O)O)C(=O)N[C@@H](CCC(=O)O)C(=O)N[C@@H](CO)C(=O)N[C@@H](Cc1ccccc1)C(=O)N[C@@H](CCCNC(=N)N)C(=O)N[C@@H](CC(=O)O)C(=O)N1CCC[C@H]1C(=O)N[C@H]1CSC2=C(SC[C@@H](C(=O)NCC(=O)N[C@H](C(=O)NCC(=O)N[C@@H](C)C(N)=O)[C@@H](C)O)NC(=O)[C@H](C(C)C)NC(=O)[C@H](CCC(=O)O)NC1=O)C(=O)NC2=O` [TACC3 522-536 A529C/L532C (mal)] (Ac-EESFRDPCEVCGTGA-NH2; linker 8-11 via Maleimide(3,4-diyl)): in experiment [2] (setting [3]), the IC50 was determined as 483 ± 58 µM.

Consider `CC(=O)N[C@@H](CCC(=O)O)C(=O)N[C@@H](CCC(=O)O)C(=O)N[C@@H](CO)C(=O)N[C@@H](Cc1ccccc1)C(=O)N[C@@H](CCCNC(=N)N)C(=O)N[C@@H](CC(=O)O)C(=O)N[C@H]1CSC2=C(SC[C@@H](C(=O)N[C@@H](CC(C)C)C(=O)NCC(=O)N[C@H](C(=O)NCC(=O)N[C@@H](C)C(N)=O)[C@@H](C)O)NC(=O)[C@H](CCC(=O)O)NC(=O)[C@H](C)NC1=O)C(=O)NC2=O` [TACC3 522-536 P528C/V531C (mal)] (Ac-EESFRDCAECLGTGA-NH2; linker 7-10 via Maleimide(3,4-diyl) (inferred)), for which, in experiment [2] (as E1, Table S3 (mal): maleimide-constrained species, WT value is an individual replica control assay, mean ± SD, n = 3, read-out: IC50 (mal)), the IC50 is at least 500 µM.

Consider “Ac-EESFRDPAEILGTGA-NH2 [TACC3 522-536_V531I]”, for which the IC50 in experiment [2] (read-out: IC50) was at least 300 µM.

Take `CC(=O)N[C@@H](CCC(=O)O)C(=O)N[C@@H](CCC(=O)O)C(=O)N[C@@H](CO)C(=O)N[C@H]1CSC2=C(SC[C@@H](C(=O)N[C@@H](C)C(=O)N[C@@H](CCC(=O)O)C(=O)N[C@H](C(=O)N[C@@H](CC(C)C)C(=O)NCC(=O)N[C@H](C(=O)NCC(=O)N[C@@H](C)C(N)=O)[C@@H](C)O)C(C)C)NC(=O)[C@H](CC(=O)O)NC(=O)[C@H](CCCNC(=N)N)NC1=O)C(=O)NC2=O` [TACC3 522-536 F525C/P528C (mal)] (Ac-EESCRDCAEVLGTGA-NH2; linker 4-7 via Maleimide(3,4-diyl)): the IC50 in experiment [2] (setting [3]) came out at 244 ± 28 µM.

Consider `CC(=O)N[C@@H](CCC(=O)O)C(=O)N[C@@H](CCC(=O)O)C(=O)N[C@@H](CO)C(=O)N[C@@H](Cc1ccccc1)C(=O)N[C@H]1CSSC[C@@H](C(=O)N[C@@H](CCC(=O)O)C(=O)N[C@H](C(=O)N[C@@H](CC(C)C)C(=O)NCC(=O)N[C@H](C(=O)NCC(=O)N[C@@H](C)C(N)=O)[C@@H](C)O)C(C)C)NC(=O)[C@@H]2CCCN2C(=O)[C@H](CC(=O)O)NC1=O` [TACC3 522-536 R526C/A529C (ox)] (Ac-EESFCDPCEVLGTGA-NH2; disulfide 5-8), for which the IC50 in experiment [2] (setting [4]) was at least 500 µM.

In the case of `CC(=O)N[C@@H](CCC(=O)O)C(=O)N[C@@H](CCC(=O)O)C(=O)N[C@@H](CO)C(=O)N[C@@H](Cc1ccccc1)C(=O)N[C@@H](CCCNC(=N)N)C(=O)N[C@@H](CC(=O)O)C(=O)N1CCC[C@H]1C(=O)N[C@@H](C)C(=O)N[C@H]1CSSC[C@@H](C(=O)N[C@H](C(=O)NCC(=O)N[C@@H](C)C(N)=O)[C@@H](C)O)NC(=O)[C@H](CC(C)C)NC(=O)[C@H](C(C)C)NC1=O` [TACC3 522-536 E530C/G533C (ox)] (Ac-EESFRDPACVLCTGA-NH2; disulfide 9-12), in experiment [2] (setting [4]), the IC50 is at least 500 µM.

On to `CC(=O)N[C@@H](CC(C)C)C(=O)N[C@@H](CCC(=O)O)C(=O)N[C@@H](CC(C)C)C(=O)N[C@@H](CCCCN)C(=O)N[C@@H](CCC(=O)O)C(=O)N[C@@H](CCC(=O)O)C(=O)N[C@H]1CSCc2ccc(cc2)-c2ccc(cc2)CSC[C@@H](C(=O)N[C@H](C(=O)N[C@@H](CC(C)C)C(N)=O)C(C)C)NC(=O)[C@H](C)NC(=O)[C@@H]2C[C@@H](F)CN2C(=O)[C@H](CC(=O)O)NC(=O)[C@H](CCCNC(=N)N)NC(=O)[C@H](Cc2ccc(Br)cc2)NC1=O` [TACC3 518-532-S/E-Bph-BrF/fP] (Ac-LELKEEC[Phe(4-Br)]RD[Pro(trans-4-F)]ACVL-NH2; linker 7-13 via Biphenyl(4,4'-CH2)2), for which the IC50 in experiment [2] (SD, read-out: IC50) turned out to be 16 ± 1 µM.

As to `CC(=O)N[C@@H](CCC(=O)O)C(=O)N[C@@H](CCC(=O)O)C(=O)N[C@@H](CO)C(=O)N[C@@H](Cc1ccccc1)C(=O)N[C@@H](CCCNC(=N)N)C(=O)N[C@@H](CC(=O)O)C(=O)N[C@H]1CSSC[C@@H](C(=O)N[C@@H](CC(C)C)C(=O)NCC(=O)N[C@H](C(=O)NCC(=O)N[C@@H](C)C(N)=O)[C@@H](C)O)NC(=O)[C@H](CCC(=O)O)NC(=O)[C@H](C)NC1=O` [TACC3 522-536 P528C/V531C (ox)] (Ac-EESFRDCAECLGTGA-NH2; disulfide 7-10), the IC50 in experiment [2] (setting [4]) is at least 500 µM.

As to `CC(=O)N[C@@H](CCC(=O)O)C(=O)N[C@@H](CCC(=O)O)C(=O)N[C@@H](CO)C(=O)N[C@@H](Cc1ccccc1)C(=O)N[C@@H](CCCNC(=N)N)C(=O)N[C@@H](CS)C(=O)N1CCC[C@H]1C(=O)N[C@@H](C)C(=O)N[C@@H](CS)C(=O)N[C@H](C(=O)N[C@@H](CC(C)C)C(=O)NCC(=O)N[C@H](C(=O)NCC(=O)N[C@@H](C)C(N)=O)[C@@H](C)O)C(C)C` [TACC3 522-536 D527C/E530C (red)] (Ac-EESFRCPACVLGTGA-NH2), the IC50 in experiment [2] (setting [5]) is at least 500 µM.

Regarding `CC(=O)N[C@@H](CCC(=O)O)C(=O)N[C@@H](CCC(=O)O)C(=O)N[C@@H](CO)C(=O)N[C@@H](Cc1ccccc1)C(=O)N[C@@H](CCCNC(=N)N)C(=O)N[C@@H](CC(=O)O)C(=O)N1CCC[C@H]1C(=O)N[C@@H](C)C(=O)N[C@@H](CS)C(=O)N[C@H](C(=O)N[C@@H](CC(C)C)C(=O)N[C@@H](CS)C(=O)N[C@H](C(=O)NCC(=O)N[C@@H](C)C(N)=O)[C@@H](C)O)C(C)C` [TACC3 522-536 E530C/G533C (red)] (Ac-EESFRDPACVLCTGA-NH2), the IC50 in experiment [2] (setting [5]) is at least 500 µM.

On to `CC(=O)N[C@@H](CCC(=O)O)C(=O)N[C@@H](CCC(=O)O)C(=O)N[C@@H](CO)C(=O)N[C@@H](Cc1ccccc1)C(=O)N[C@@H](CCCNC(=N)N)C(=O)N[C@@H](CC(=O)O)C(=O)N1CCC[C@H]1C(=O)N[C@@H](C)C(=O)N[C@@H](CCC(=O)O)C(=O)N[C@H](C(=O)N[C@@H](CC(C)C)C(=O)N[C@H]1CSSC[C@@H](C(N)=O)NC(=O)CNC(=O)[C@H]([C@@H](C)O)NC1=O)C(C)C` [TACC3 522-536 G533C/A536C (ox)] (Ac-EESFRDPAEVLCTGC-NH2; disulfide 12-15), for which the concentration for half-maximal inhibition (IC50) in experiment [2] (setting [4]) was at least 500 µM.

`CC(=O)N[C@@H](CCC(=O)O)C(=O)N[C@@H](CCC(=O)O)C(=O)N[C@@H](CO)C(=O)N[C@@H](Cc1ccccc1)C(=O)N[C@@H](CCCNC(=N)N)C(=O)N[C@@H](CC(=O)O)C(=O)N1CCC[C@H]1C(=O)N[C@H]1CSSC[C@@H](C(=O)NCC(=O)N[C@H](C(=O)NCC(=O)N[C@@H](C)C(N)=O)[C@@H](C)O)NC(=O)[C@H](C(C)C)NC(=O)[C@H](CCC(=O)O)NC1=O` [TACC3 522-536 A529C/L532C (ox)] (Ac-EESFRDPCEVCGTGA-NH2; disulfide 8-11): the IC50 in experiment [2] (setting [4]) was at least 500 µM.
